Assay results published in US6410581B1, “Disubstituted biphenyloxazolines” (Bayer Aktiengesellschaft, priority 1997, dated 2002).

Assay: log p, n-octanol/water partition coefficient by reverse phase HPLC (H2O/CH3CN)
Assay type: physicochemical
Conditions: n-octanol/water, pH 2.3

Structure (SMILES)	chromatographic logP
CCc1cc(-c2ccccc2)ccc1OC(C)=O [4-acetoxy-3-ethyl-biphenyl]	3.92
CCCc1cc(-c2ccccc2)ccc1OC(C)=O [4-acetoxy-3-propyl-biphenyl]	4.32
CCOC(=O)Oc1ccc(-c2ccccc2)cc1Cl [(2-Chloro-4-phenyl-phenyl) ethyl carbonate]	4.16
CCOC(=O)Oc1ccc(-c2ccccc2)cc1C [(2-Methyl-4-phenyl-phenyl) ethyl carbonate]	4.04
CCCc1cc(-c2ccccc2)ccc1OC(=O)OCC [(4-phenyl-2-propyl-phenyl) ethyl carbonate]	4.76

Same assay, conditions: n-octanol/water, pH 7.5

Structure (SMILES)	chromatographic logP
CCOC(=O)Oc1c(Cl)cc(-c2ccccc2)cc1Cl [(2,6-dichloro-4-phenyl-phenyl) ethyl carbonate]	4.65

Same assay, conditions: pH 7.5

Structure (SMILES)	log p
CCC(C)Oc1ccc(-c2ccc(C3COC(c4c(F)cccc4F)=N3)cc2)cc1C (centres unmarked) [Example I-7]	log p*: 5.60 (pH = 7.5)
CCCc1cc(-c2ccc(C3COC(c4ccccc4C)=N3)cc2)ccc1OC(C)CC (centres unmarked) [Example I-9]	log p: 7.28 (pH = 7.5)
CCCc1cc(-c2ccc(C3COC(c4c(F)cccc4F)=N3)cc2)ccc1OC(C)CC (centres unmarked) [Example I-10]	log p: 6.33 (pH = 7.5)
Cc1cc(-c2ccc(C3COC(c4ccccc4Cl)=N3)cc2)ccc1OC(C)C (centres unmarked) [Example I-12]	log p: 5.56 (pH = 7.5)
Cc1cc(-c2ccc(C3COC(c4ccccc4Br)=N3)cc2)ccc1OC(C)C (centres unmarked) [Example I-14]	log p: 5.63 (pH = 7.5)
CCC(C)Oc1ccc(-c2ccc(C3COC(c4ccccc4Br)=N3)cc2)cc1C (centres unmarked) [Example I-16]	log p: 6.12 (pH = 7.5)
CC(C)Oc1ccc(-c2ccc(C3COC(c4ccccc4F)=N3)cc2)cc1Cl (centres unmarked) [Example I-32]	log p (pH 7.5): 5.04
CC(C)COc1ccc(-c2ccc(C3COC(c4ccccc4Cl)=N3)cc2)cc1Cl (centres unmarked) [Example I-34]	log p (pH 7.5): 6.03
CCCc1cc(-c2ccc(C3COC(c4ccccc4Cl)=N3)cc2)ccc1OC(C)C (centres unmarked) [Example I-36]	log p: 6.35 (pH 7.5)
CCCc1cc(-c2ccc(C3COC(c4ccccc4Cl)=N3)cc2)ccc1OCC(C)C (centres unmarked) [Example I-37]	log p: 6.95 (pH 7.5)
CCCc1cc(-c2ccc(C3COC(c4ccccc4Cl)=N3)cc2)ccc1OCC(C)O (centres unmarked) [Example I-39]	log p: 4.47 (pH 7.5)
CCCc1cc(-c2ccc(C3COC(c4ccccc4Br)=N3)cc2)ccc1OC(C)C (centres unmarked) [Example I-40]	log p: 6.40 (pH 7.5)
Cc1cc(-c2ccc(C3COC(c4c(F)cccc4F)=N3)cc2)cc(C)c1OC(C)C (centres unmarked) [Example I-44]	log p: 5.23 (pH 7.5)
CCCc1cc(-c2ccc(C3COC(c4ccccc4C)=N3)cc2)ccc1OC(C)C (centres unmarked) [Example I-52]	log p: 6.78 (pH 7.5)
C=CCOc1ccc(-c2ccc(C3COC(c4ccccc4C)=N3)cc2)cc1C (centres unmarked) [Example I-55]	log p: 5.64 (pH 7.5)
CCCc1cc(-c2ccc(C3COC(c4ccccc4I)=N3)cc2)ccc1OC(C)C (centres unmarked) [Example I-57]	log p: 6.59 (pH 7.5)
C=CCc1cc(-c2ccc(C3COC(c4c(F)cccc4F)=N3)cc2)ccc1OC(C)CC (centres unmarked) [Example I-59]	log p: 5.95 (pH 7.5)
CCCc1cc(-c2ccc(C3COC(c4c(F)cccc4F)=N3)cc2)ccc1OCc1ccc(C(C)(C)C)cc1 (centres unmarked) [Example I-60]	log p: 7.14 (pH 7.5)
CCc1cc(-c2ccc(C3COC(c4c(F)cccc4F)=N3)cc2)ccc1OC(C)C (centres unmarked) [Example I-63]	log p: 5.54 (pH 7.5)
CCCc1cc(-c2ccc(C3COC(c4ccccc4C)=N3)cc2)ccc1OCC(C)C (centres unmarked) [Example I-64]	log p: 4.48 (pH 7.5)
Cc1cc(-c2ccc(C3COC(c4ccccc4I)=N3)cc2)ccc1OC(C)C (centres unmarked) [Example I-67]	log p: 5.81 (pH 7.5)
Cc1cc(-c2ccc(C3COC(c4ccccc4C)=N3)cc2)ccc1OC(C)C (centres unmarked) [Example I-70]	log p: 6.02 (pH 7.5)
CC(C)Oc1ccc(-c2ccc(C3COC(c4c(F)cccc4Cl)=N3)cc2)cc1Cl (centres unmarked) [Example I-71]	log p: 5.25 (pH 7.5)

Structure (SMILES)	log p
CCC(C)Oc1ccc(-c2ccc(C3COC(c4c(F)cccc4Cl)=N3)cc2)cc1Cl (centres unmarked) [Example I-76]	log p: 5.69 (pH 7.5)
CC(C)COc1ccc(-c2ccc(C3COC(c4c(F)cccc4Cl)=N3)cc2)cc1Cl (centres unmarked) [Example I-77]	log p: 5.89 (pH 7.5)
C=CCOc1ccc(-c2ccc(C3COC(c4c(F)cccc4Cl)=N3)cc2)cc1Cl (centres unmarked) [Example I-80]	log p: 4.99 (pH 7.5)
CCCCCCOc1ccc(-c2ccc(C3COC(c4c(F)cccc4Cl)=N3)cc2)cc1Cl (centres unmarked) [Example I-83]	log p: 6.68 (pH 7.5)
CCCc1cc(-c2ccc(C3COC(c4c(F)cccc4Cl)=N3)cc2)ccc1OC(C)C (centres unmarked) [Example I-85]	log p: 6.20 (pH 7.5)
CCCc1cc(-c2ccc(C3COC(c4c(F)cccc4Cl)=N3)cc2)ccc1OC(C)CC (centres unmarked) [Example I-86]	log p: 6.62 (pH 7.5)
CCCOc1ccc(-c2ccc(C3COC(c4ccccc4F)=N3)cc2)cc1Cl (centres unmarked) [Example I-87]	log p: 5.22 (pH 7.5)
CCC(C)Oc1ccc(-c2ccc(C3COC(c4ccccc4F)=N3)cc2)cc1Cl (centres unmarked) [Example I-89]	log p: 5.49 (pH 7.5)
CC(C)COc1ccc(-c2ccc(C3COC(c4ccccc4F)=N3)cc2)cc1Cl (centres unmarked) [Example I-90]	log p: 5.70 (pH 7.5)
CCCCCCOc1ccc(-c2ccc(C3COC(c4ccccc4F)=N3)cc2)cc1Cl (centres unmarked) [Example I-96]	log p: 6.48 (pH 7.5)
CCCc1cc(-c2ccc(C3COC(c4c(F)cccc4Cl)=N3)cc2)ccc1OCC(C)C (centres unmarked) [Example I-104]	log p: 6.82 (pH 7.5)
C=CCc1cc(-c2ccc(C3COC(c4c(F)cccc4F)=N3)cc2)cc(CC=C)c1OC(C)CC (centres unmarked) [Example I-139]	log p: 6.39
C=CCc1cc(-c2ccc(C3COC(c4ccccc4C)=N3)cc2)cc(Cl)c1OC(C)C (centres unmarked) [Example I-146]	log p: 6.75 (pH 7.5)
C=CCOc1ccc(-c2ccc(C3COC(c4ccccc4C)=N3)cc2)cc1Cl (centres unmarked) [Example I-155]	log p: 5.47 (pH 7.5)
C#CCOc1ccc(-c2ccc(C3COC(c4ccccc4C)=N3)cc2)cc1Cl (centres unmarked) [Example I-156]	log p: 4.81 (pH 7.5)
Cc1cc(-c2ccc(C3COC(c4c(F)cccc4Cl)=N3)cc2)ccc1OC(C)C (centres unmarked) [Example I-163]	log p: 5.45
CCC(C)Oc1ccc(-c2ccc(C3COC(c4c(F)cccc4Cl)=N3)cc2)cc1C (centres unmarked) [Example I-165]	log p: 5.93
C=CCc1cc(-c2ccc(C3COC(c4c(F)cccc4Cl)=N3)cc2)ccc1OCCC (centres unmarked) [Example I-176]	log p: 5.98
C=CCc1cc(-c2ccc(C3COC(c4c(F)cccc4Cl)=N3)cc2)ccc1OC(C)C (centres unmarked) [Example I-177]	log p: 5.82
C=CCc1cc(-c2ccc(C3COC(c4c(F)cccc4Cl)=N3)cc2)ccc1OCC(C)C (centres unmarked) [Example I-178]	log p: 6.47
C=CCc1cc(-c2ccc(C3COC(c4c(F)cccc4Cl)=N3)cc2)ccc1OC(C)CC (centres unmarked) [Example I-179]	log p: 6.33
C=CCOc1ccc(-c2ccc(C3COC(c4c(F)cccc4Cl)=N3)cc2)cc1CC=C (centres unmarked) [Example I-181]	log p: 5.49
C#CCOc1ccc(-c2ccc(C3COC(c4c(F)cccc4Cl)=N3)cc2)cc1CC=C (centres unmarked) [Example I-182]	log p: 4.81

Structure (SMILES)	log p
Cc1cc(-c2ccc(C3COC(c4ccccc4F)=N3)cc2)ccc1OC(C)C (centres unmarked) [Example I-190]	log p: 5.23
Cc1cc(-c2ccc(C3COC(c4ccccc4F)=N3)cc2)ccc1OCC(C)C (centres unmarked) [Example I-191]	log p: 5.89
CCC(C)Oc1ccc(-c2ccc(C3COC(c4ccccc4F)=N3)cc2)cc1C (centres unmarked) [Example I-192]	log p: 5.70
C#CC(C)Oc1ccc(-c2ccc(C3COC(c4ccccc4F)=N3)cc2)cc1C (centres unmarked) [Example I-196]	log p: 4.68
CCCc1cc(-c2ccc(C3COC(c4ccccc4F)=N3)cc2)ccc1OC(C)C (centres unmarked) [Example I-202]	log p: 6.03
CCCc1cc(-c2ccc(C3COC(c4ccccc4F)=N3)cc2)ccc1OCC(C)C (centres unmarked) [Example I-204]	log p: 6.61
C#CC(C)Oc1ccc(-c2ccc(C3COC(c4ccccc4F)=N3)cc2)cc1CCC (centres unmarked) [Example I-209]	log p: 5.32
CCCOc1ccc(-c2ccc(C3COC(c4ccccc4F)=N3)cc2)cc1Cl (centres unmarked) [Example I-216]	log p: 5.22
CC(C)COc1ccc(-c2ccc(C3COC(c4ccccc4F)=N3)cc2)cc1Cl (centres unmarked) [Example I-217]	log p: 5.70
CCC(C)Oc1ccc(-c2ccc(C3COC(c4ccccc4F)=N3)cc2)cc1Cl (centres unmarked) [Example I-218]	log p: 5.49
CCCCCCOc1ccc(-c2ccc(C3COC(c4ccccc4F)=N3)cc2)cc1Cl (centres unmarked) [Example I-219]	log p: 6.48
C#CCOc1ccc(-c2ccc(C3COC(c4ccccc4F)=N3)cc2)cc1Cl (centres unmarked) [Example I-221]	log p: 4.16
C#CC(C)Oc1ccc(-c2ccc(C3COC(c4ccccc4F)=N3)cc2)cc1Cl (centres unmarked) [Example I-222]	log p: 4.58
Cc1cc(-c2ccc(C3COC(c4ccccc4Cl)=N3)cc2)ccc1OC(C)C (centres unmarked) [Example I-229]	log p: 5.56
CCCc1cc(-c2ccc(C3COC(c4ccccc4Cl)=N3)cc2)ccc1OC(C)C (centres unmarked) [Example I-240]	log p: 6.35
C=CCc1cc(-c2ccc(C3COC(c4ccccc4Cl)=N3)cc2)ccc1OC(C)C (centres unmarked) [Example I-250]	log p: 5.93
C=CCc1cc(-c2ccc(C3COC(c4ccccc4Cl)=N3)cc2)ccc1OCC(C)C (centres unmarked) [Example I-251]	log p: 6.52
C=CCc1cc(-c2ccc(C3COC(c4ccccc4Br)=N3)cc2)cc(Cl)c1OC(C)C (centres unmarked) [Example I-281]	log p: 6.35
C=CCc1cc(-c2ccc(C3COC(c4ccccc4Br)=N3)cc2)cc(Cl)c1OCCCCCC (centres unmarked) [Example I-282]	log p: 7.36
C=CCOc1c(Cl)cc(-c2ccc(C3COC(c4ccccc4Br)=N3)cc2)cc1CC=C (centres unmarked) [Example I-283]	log p: 6.05
C#CCOc1c(Cl)cc(-c2ccc(C3COC(c4ccccc4Br)=N3)cc2)cc1CC=C (centres unmarked) [Example I-284]	log p: 5.37

Same assay, conditions: pH not given

Structure (SMILES)	log p
CCCc1cc(-c2ccc(C3COC(c4ccccc4F)=N3)cc2)ccc1OC(C)CC (centres unmarked) [Example I-205]	log p: 6.47
